Legend:
[1] = system: A549 cells; test: Antiproliferative MTT assay; format: cell-based; details: Homo sapiens, 72 h, mean ± SEM
Description: (§1) Human T-cell leukemia (Jurkat), human B-cell leukemia (RS 4,11) and human promyelocytic leukemia (HL-60) cells were grown in RPMI-1640 medium (Gibco, Milan, Italy). Breast adenocarcinoma (MCF-7 and MDA-MB-231), human non-small cell lung carcinoma (A549), human cervix carcinoma (HeLa), human prostate adenocarcinoma (PC-3), and human colon adenocarcinoma (HT-29) cells were grown in DMEM medium (Gibco, Milan, Italy). Both media were supplemented with 115 units/mL of penicillin G (Gibco, Milan, Italy), 115 μg/mL of streptomycin (Invitrogen, Milan, Italy) and 10% fetal bovine serum (Invitrogen, Milan, Italy). Stock solutions (10 mM) of the different compounds were obtained by dissolving them in DMSO. Individual wells of 96-well tissue-culture microtiter plates were inoculated with 100 μL of complete medium containing 8 × 10^3 cells. The plates were incubated at 37 °C in a humidified 5% CO2 incubator for 18 h prior to the experiments. After medium removal, 100 μL of fresh medium containing the test compound at different concentrations was added to each well and incubated at 37 °C for 72 h. The percentage of DMSO in the medium in no case exceeded 0.25%.

[2] = system: HL-60 cells; test: Antiproliferative MTT assay; format: cell-based; details: Homo sapiens, 72 h, mean ± SEM
Description: as §1

[3] = system: HT-29 cells; test: Antiproliferative MTT assay; format: cell-based; details: Homo sapiens, 72 h, mean ± SEM
Description: as §1

[4] = system: HeLa cells; test: Antiproliferative MTT assay; format: cell-based; details: Homo sapiens, 72 h, mean ± SEM
Description: as §1

[5] = system: Jurkat cells; test: Antiproliferative MTT assay; format: cell-based; details: Homo sapiens, 72 h, mean ± SEM
Description: as §1

[6] = system: MCF-7 cells; test: Antiproliferative MTT assay; format: cell-based; details: Homo sapiens, MCF7, 72 h, mean ± SEM
Description: as §1

[7] = system: MDA-MB-231 cells; test: Antiproliferative MTT assay; format: cell-based; details: Homo sapiens, 72 h, mean ± SEM
Description: as §1

[8] = system: RS4,11 cells; test: Antiproliferative MTT assay; format: cell-based; details: Homo sapiens, 72 h, mean ± SEM
Description: as §1

[9] = system: PBL (+Pha); test: Antiproliferative assay in non-tumoral cells (MTT); format: cell-based; details: Homo sapiens, non-tumoral cells stimulated with phytohematoagglutinin, 72 h, mean ± SEM
Description: (§2) Peripheral mononuclear cells (PBMC) from healthy donors were obtained by separation on Lymphoprep (Fresenius KABI Norge AS) gradient. After extensive washing, cells were resuspended (1 × 10^6 cells/mL) in RPMI-1640 with 10% fetal bovine serum and incubated overnight. For cytotoxicity evaluations in proliferating PBL cultures, non-adherent cells were resuspended at 5 × 10^5 cells/mL in growth medium, containing 2.5 μg/mL PHA (Irvine Scientific). Different concentrations of the test compounds were added, and viability was determined 72 h later by the MTT test. For cytotoxicity evaluations in resting PBL cultures, non-adherent cells were resuspended (5 × 10^5 cells/mL) and treated for 72 h with the test compounds, as described above.

[10] = system: PBL (resting); test: Antiproliferative assay in non-tumoral cells (MTT); format: cell-based; details: Homo sapiens, 72 h, mean ± SEM
Description: as §2

[11] = system: HUVEC; test: Antiproliferative assay in non-tumoral cells; format: cell-based; details: Homo sapiens, mean ± SEM
Description: Human Umbilical Vein Endothelial cells (HUVEC), were prepared from human umbilical-cord veins, as previously described. The adherent cells were maintained in M200 medium added by LSGS (low serum growth supplement), containing FBS, hydrocortisone, hEGF, bFGF, heparin, gentamycin/amphotericin (Life Technologies, Monza, Italy). Once confluent, the cells were detached by trypsin–EDTA solution and used in experiments from the first to sixth passages.

[12] = system: MDA-MB-231 cells; test: Cell-cycle distribution analysis (PI, flow cytometry); format: cell-based, human; details: MDA-MB-231
Description: [The source words this procedure for another cell line and reports this cell line under the same test.] For flow-cytometric analysis of the DNA content, 5 × 10^5 HeLa or Jurkat cells in exponential growth were treated with different concentrations of the test compounds for 24 and 48 h. After the incubation period, the cells were collected, centrifuged, and fixed with ice-cold ethanol (70%). The cells were then treated with lysis buffer containing RNAse A and 0.1% Triton X-100, and then stained with propidium iodide (PI). Samples were analyzed in a Cytomics FC500 flow cytometer (Beckman Coulter). DNA histograms were analyzed using MultiCycle for Windows (Phoenix Flow Systems).

[13] = system: breast- and colon-cancer cells; set-up: method as in earlier work; details: 15 μM; ref 15 (Sanchez-Lopez et al.); cited from earlier work
[14] = system: mice; details: mouse, in vivo; cited from earlier work
[15] = biological target: T1, human ChoKα1 (Homo sapiens, UniProt P35790); test: Tryptophan fluorescence quenching; format: binding; details: mean ± S.D. of at least three independent experiments; 25 °C, enzyme 1 μM; read-out: HsChoKα1 Kd
T1 construct: made in house
T1 sequence (P35790 whole entry): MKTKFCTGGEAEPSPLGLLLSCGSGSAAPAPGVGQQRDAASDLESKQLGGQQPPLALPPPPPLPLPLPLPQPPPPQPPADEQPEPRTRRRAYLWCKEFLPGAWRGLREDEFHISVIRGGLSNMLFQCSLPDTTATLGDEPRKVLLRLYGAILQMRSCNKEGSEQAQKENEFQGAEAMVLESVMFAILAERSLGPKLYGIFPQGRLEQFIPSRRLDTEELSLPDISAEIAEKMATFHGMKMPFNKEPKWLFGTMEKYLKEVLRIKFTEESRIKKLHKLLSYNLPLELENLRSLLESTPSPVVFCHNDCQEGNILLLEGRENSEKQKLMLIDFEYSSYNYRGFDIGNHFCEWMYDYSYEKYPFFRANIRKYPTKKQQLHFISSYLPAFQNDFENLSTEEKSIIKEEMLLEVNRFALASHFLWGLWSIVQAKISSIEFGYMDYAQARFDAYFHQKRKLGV
Description: All compounds were prepared in 100% DMSO. Their Kds against human ChoKα1 were measured by monitoring the quenching of tryptophan fluorescence. All experiments were performed in a Cary Eclipse spectrofluorometer (Varian) at 25 °C with the enzymes at 1 μM, and concentrations of compounds varying from 0.1 to 5 μM for ChoKα1 in 25 mM Tris, 150 mM NaCl, pH 7.5. Fluorescence emission spectra were recorded in the 300–400 nm range with an excitation wavelength of 280 nm, with slit width of 5 nm. Controls were determined by incubating the enzymes with equivalent amounts of DMSO. As indicated previously, data analysis was performed in Prism (GraphPad software) considering a model with a single binding site (Eq. 1), where F0 is the intrinsic fluorescence of the enzyme in the absence of quencher (Q), F1 is the observed fluorescence at a given quencher concentration, fa is the fractional degree of fluorescence, and Kd is the dissociation constant.

[16] = biological target: purified human ChoKα1 (Homo sapiens, UniProt P35790); test: Determination of human choline kinase α1 activity ([methyl-14C]choline incorporation into phosphocholine); format: biochemical; details: mean ± SEM, three independent experiments; read-out: IC50 ChoKα1 purified
Chain of purified human ChoKα1 (P35790 whole entry): as above
Description: The effect of the different inhibitors on human choline kinase (ChoK) was assayed in ChoKα1 purified as previously described[32]. In each experiment DMSO-assays were always run in parallel as a control. DMSO in no case exceeded a concentration of 0.1% in order to avoid unspecific ChoK inhibition. ChoK activity was assayed by measuring the rate of incorporation of ^14C from [methyl-^14C]choline into phosphocholine both in the presence or absence of different inhibitor concentrations. Briefly, the final reaction mixture contained 100 mM Tris (pH 8.5), 10 mM MgCl2, and 10 mM ATP, and 20 ng of purified ChoKα1. […] The assay was stopped by immersing the reaction tubes in boiling water for 3 min. Aliquots of the reaction mixture were applied to the origin of Silica Gel plates in the presence of phosphocholine (0.1 mg) and choline (0.1 mg) as carriers. The chromatography was developed in methanol/0.6% NaCl/28% NH4OH in water (50:50:5, v/v/v) as solvent. Phosphocholine was visualized under exposure to iodine vapor and the corresponding spot was scraped and transferred to scintillation vials for measurement of radioactivity by a Beckman 6000-TA (Madrid, Spain) liquid-scintillation counter. At least three experiments were performed in all assays.

[17] = system: PC-3 cells; test: Antiproliferative MTT assay; format: cell-based; details: Homo sapiens, 72 h, mean ± SEM
Description: as §1

[18] = system: Human fibroblasts; test: Antiproliferative assay in non-tumoral cells; format: cell-based; details: Fibroblast, mean ± SEM
Text: Human fibroblasts from foreskin were isolated as previously described[58] and maintained in DMEM medium with 10% fetal bovine serum added.

[19] = Solubility in crystallization mother liquor (crystal soaking); format: physicochemical; details: 20% PEG 3350, 0.25 M potassium isothiocyanate, 10% DMSO, compound 50 mM
Description: ChoKα1 at 20 mg/ml in buffer 25 mM Tris/HCl, 150 mM NaCl pH 7.5 was used as the protein solution. The sitting-drop vapor-diffusion method was used to produce apo-crystals by mixing 0.5 μl of the protein solution and an equal volume of mother liquor (crystals appeared in 20% polyethylene glycol [PEG] 3350 and 0.25 M potassium isothiocyanate). Tetragonal crystals (space group P43212) grew within in 3–4 days and were soaked in 2 μL of the mother liquor with 0.2 μL of a dilution 500 mM of compounds 10a, 10g, 10h, 10k, and 10l in DMSO (DMSO was at 10% final concentration in the mix whereas compounds were at 50 mM) for two days. Only crystals soaked with compound 10a contained the compound. The crystals used in this study were cryoprotected in mother-liquor solutions containing 20% ethylenglycol and frozen in a nitrogen gas stream cooled to 100 K.

[20] = system: Jurkat cells; test: Annexin-V/PI assay; format: cell-based, human; details: 72 h, positive controls Cis-Pt 50 μM, Etoposide 5 μM
Description: (§3) Surface exposure of PS on apoptotic cells was measured by flow cytometry with Cytomics FC500 (Beckman Coulter) by adding simultaneously annexin-V conjugated to fluorescein isothiocyanate (FITC) and PI to cells according to the manufacturer′s instructions (Annexin-V Fluos, Roche Diagnostic).

[21] = system: MCF-7 cells; test: Annexin-V/PI assay; format: cell-based, human; details: MCF-7, 72 h; positive controls Cis-Pt 50 μM, Etoposide 5 μM
Description: as §3

[22] = system: MDA-MB-231 cells; test: Annexin-V/PI assay; format: cell-based, human; details: MDA-MB-231, 72 h; positive controls Cis-Pt 50 μM, Etoposide 5 μM
Description: as §3

Row | Compound | GI50 [1] [nM] | GI50 [2] [nM] | GI50 [3] [nM] | GI50 [4] [nM] | GI50 [5] [nM] | GI50 [6] [nM] | GI50 [7] [nM] | GI50 [8] [nM] | GI50 [9] [nM] | GI50 [10] [nM] | GI50 [11] [µM] | Cells with hypodiploid DNA content (apoptotic cells by cell-cycle analysis) [12] | Cell-cycle effect (G1 phase) [13] | Kd [15] [nM] | IC50 [16] [nM] | GI50 [17] [nM] | GI50 [18] [µM] | Apoptotic cells (annexin-V/PI) [20] | Apoptotic cells (annexin-V/PI) [21] | Apoptotic cells (annexin-V/PI) [22] | also measured
1 | CN(c1ccc(Cl)cc1)c1cc[n+](Cc2ccc(-c3ccc(C[n+]4ccc(N(C)c5ccc(Cl)cc5)c5ccccc54)cc3)cc2)c2ccccc12 [RSM932A, reference compound] | 450 ± 90 | 930 ± 100 | 400 ± 200 | 830 ± 100 | 410 ± 100 | 180 ± 100 | 170 ± 50 | 170 ± 40 | 230 ± 50 | 1100 ± 90 | 0.46 ± 0.047 | negligible percentage of apoptotic cells | significant decrease of the G1 phase |  |  |  |  |  |  |  | Toxicity profile and tolerability [14]: low-toxicity profile with improved tolerability
2 | CN(c1ccc(Cl)cc1)c1cc[n+](Cc2ccc(OCCOc3ccc(C[n+]4ccc(N(C)c5ccc(Cl)cc5)c5ccccc54)cc3)cc2)c2ccccc12.[Br-].[Br-] [Compound 10g, 1,1′-(((ethane-1,2-diylbis(oxy))bis(4,1-phenylene))bis(methylene))bis(4-((4-chlorophenyl)(methyl)amino)quinolinium) bromide] | 110 ± 18 | 710 ± 240 | 750 ± 120 | 250 ± 60 | 98 ± 31 | 460 ± 63 | 190 ± 9 | 150 ± 40 | 550 ± 110 | 980 ± 250 | 10.4 ± 3.5 |  |  | 517 ± 99 | 3270 ± 660 | 260 ± 10 | 7.4 ± 2.4 |  |  |  | melting point: 178 to 180 °C
3 | Clc1ccc2c(N3CCCC3)cc[n+](Cc3ccc(OCCOc4ccc(C[n+]5ccc(N6CCCC6)c6ccc(Cl)cc65)cc4)cc3)c2c1.[Br-].[Br-] [Compound 10l, 1,1′-(((ethane-1,2-diylbis(oxy))bis(4,1-phenylene))bis(methylene))bis(7-chloro-4-(pyrrolidin-1-yl)quinolinium) bromide] | 140 ± 60 | 160 ± 70 | 560 ± 210 | 370 ± 180 | 7 ± 3 | 22 ± 7 | 50 ± 20 | 420 ± 140 | 490 ± 150 | 3800 ± 550 | 11.4 ± 5.9 |  |  | 357 ± 39 | 920 ± 10 | 800 ± 200 | 9.6 ± 1.3 |  |  |  | Solubility in the mother liquor [19]: insoluble in the mother liquor
4 | COc1cc([C@@H]2c3cc4c(cc3[C@@H](O[C@@H]3O[C@@H]5CO[C@@H](C)O[C@H]5[C@H](O)[C@H]3O)[C@H]3COC(=O)[C@H]23)OCO4)cc(OC)c1O [Etoposide] |  |  |  |  |  |  |  |  |  |  |  |  |  |  |  |  |  | induce significant apoptosis | induce significant apoptosis | induce significant apoptosis | 
5 | N.N.[Cl][Pt][Cl] [Cis-Pt] |  |  |  |  |  |  |  |  |  |  |  |  |  |  |  |  |  | induce significant apoptosis | induce significant apoptosis | induce significant apoptosis | 
6 | CN(C)c1cc[n+](Cc2ccc(CCCCc3ccc(C[n+]4ccc(N(C)C)cc4)cc3)cc2)cc1 [MN58b, reference compound] | 540 ± 200 | 320 ± 30 | 1900 ± 400 | 1900 ± 100 | 350 ± 100 | 1800 ± 60 | 310 ± 120 | 1000 ± 300 | 150 ± 50 | 2000 ± 400 | 2.1 ± 0.58 | negligible percentage of apoptotic cells | significant decrease of the G1 phase |  |  |  |  |  |  |  | 

Source: paper PMC4814829, “Design, synthesis, crystallization and biological evaluation of new symmetrical biscationic compounds as selective inhibitors of human Choline Kinase α1 (ChoKα1)” (Scientific Reports, 2016)
